According to article PMC5224920, “Assessing the mechanism and therapeutic potential of modulators of the human Mediator complex-associated protein kinases” (eLife, 2016):

System: 12 single or co-culture in vitro tissue models of primary cells
Assay: Culture/co-culture cell model panel, extracellular biomarkers (DiscoveRx); for CCL2/MCP-1: reference of the scale not given here; for CXCL8/IL-8: reference of the scale not given here; for CXCL9/MIG: reference of the scale not given here; for IL-1alpha: reference of the scale not given here; for M-CSF: reference of the scale not given here; for PBMC Cytotoxicity: reference of the scale not given here; for SRB: reference of the scale not given here; for sTNF-alpha: reference of the scale not given here
Assay type: cell-based, human
Details: for B cell Proliferation / PBMC Cytotoxicity / Secreted IgG / sIL-2 / sIL-6 / sIL-17A / sIL-17F / sTNF-alpha: BT
[1] = HDF3CGF stimulated fibroblasts, 1.00E0 nM
[2] = HDF3CGF stimulated fibroblasts, 1.00E1 nM
[3] = HDF3CGF stimulated fibroblasts, 1.00E2 nM
[4] = HDF3CGF stimulated fibroblasts, 1.00E3 nM

CN1c2ccc(-c3cncc(Cl)c3N3CCC4(CC3)CNC(=O)O4)cc2CS1(=O)=O [CMPD2]
SRB (BENo, 1.00E3 nM): 0.003 | tPA (BENo, 1.00E3 nM): 0.049 | uPA (BENo, 1.00E3 nM): 0.021 | CCL26/Eotaxin-3 (BENo, 1.00E4 nM): 0.048 | CD54/ICAM-1 (BENo, 1.00E4 nM): -0.033 | CD87/uPAR (BENo, 1.00E4 nM): 0.057 | CXCL8/IL-8 (BENo, 1.00E4 nM): 0.016 | CXCL9/MIG (BENo, 1.00E4 nM): 0.075 | CXCL10/IP-10 (BENo, 1.00E4 nM): 0.073 | CXCL11/I-TAC (BENo, 1.00E4 nM): 0.025 | EGFR (BENo, 1.00E4 nM): 0.043 | HLA-DR (BENo, 1.00E4 nM): 0.040 | IL-1alpha (BENo, 1.00E4 nM): -0.020 | Keratin 8/18 (BENo, 1.00E4 nM): 0.022 | MMP-1 (BENo, 1.00E4 nM): 0.039 | MMP-9 (BENo, 1.00E4 nM): 0.031 | PAI-I (BENo, 1.00E4 nM): -0.100 | SRB (BENo, 1.00E4 nM): 0.001 | tPA (BENo, 1.00E4 nM): 0.040 | uPA (BENo, 1.00E4 nM): -0.00475 | CCL2/MCP-1 (BF4T, 1.00E0 nM): 0.022 | CCL26/Eotaxin-3 (BF4T, 1.00E0 nM): -0.032 | CD54/ICAM-1 (BF4T, 1.00E0 nM): -0.00361 | CD90 (BF4T, 1.00E0 nM): -0.036 | CD106/VCAM-1 (BF4T, 1.00E0 nM): 0.043 | CXCL8/IL-8 (BF4T, 1.00E0 nM): 0.040 | IL-1alpha (BF4T, 1.00E0 nM): 0.007 | Keratin 8/18 (BF4T, 1.00E0 nM): -0.001 | MMP-1 (BF4T, 1.00E0 nM): 0.030 | MMP-3 (BF4T, 1.00E0 nM): 0.082 | MMP-9 (BF4T, 1.00E0 nM): 0.039 | PAI-I (BF4T, 1.00E0 nM): -0.008 | SRB (BF4T, 1.00E0 nM): 0.004 | tPA (BF4T, 1.00E0 nM): 0.051 | uPA (BF4T, 1.00E0 nM): 0.046 | CCL2/MCP-1 (BF4T, 1.00E1 nM): -0.011 | CCL26/Eotaxin-3 (BF4T, 1.00E1 nM): -0.107 | CD54/ICAM-1 (BF4T, 1.00E1 nM): -0.027 | CD90 (BF4T, 1.00E1 nM): -0.009 | CD106/VCAM-1 (BF4T, 1.00E1 nM): 0.033 | CXCL8/IL-8 (BF4T, 1.00E1 nM): 0.048 | IL-1alpha (BF4T, 1.00E1 nM): 0.020 | Keratin 8/18 (BF4T, 1.00E1 nM): -0.009 | MMP-1 (BF4T, 1.00E1 nM): 0.022 | MMP-3 (BF4T, 1.00E1 nM): 0.075 | MMP-9 (BF4T, 1.00E1 nM): 0.012 | PAI-I (BF4T, 1.00E1 nM): 0.023 | SRB (BF4T, 1.00E1 nM): -0.00108 | tPA (BF4T, 1.00E1 nM): 0.047 | uPA (BF4T, 1.00E1 nM): 0.034 | CCL2/MCP-1 (BF4T, 1.00E2 nM): -0.025 | CCL26/Eotaxin-3 (BF4T, 1.00E2 nM): -0.086 | CD54/ICAM-1 (BF4T, 1.00E2 nM): -0.020 | CD90 (BF4T, 1.00E2 nM): 0.002 | CD106/VCAM-1 (BF4T, 1.00E2 nM): 0.042 | CXCL8/IL-8 (BF4T, 1.00E2 nM): 0.050 | IL-1alpha (BF4T, 1.00E2 nM): 0.00136 | Keratin 8/18 (BF4T, 1.00E2 nM): 0.009 | MMP-1 (BF4T, 1.00E2 nM): 0.008 | MMP-3 (BF4T, 1.00E2 nM): 0.053 | MMP-9 (BF4T, 1.00E2 nM): 0.008 | PAI-I (BF4T, 1.00E2 nM): 0.039 | SRB (BF4T, 1.00E2 nM): 4.82e-5 | tPA (BF4T, 1.00E2 nM): 0.063 | uPA (BF4T, 1.00E2 nM): 0.022 | CCL2/MCP-1 (BF4T, 1.00E3 nM): -0.016 | CCL26/Eotaxin-3 (BF4T, 1.00E3 nM): -0.102 | CD54/ICAM-1 (BF4T, 1.00E3 nM): -0.022 | CD90 (BF4T, 1.00E3 nM): -0.000476 | CD106/VCAM-1 (BF4T, 1.00E3 nM): 0.044 | CXCL8/IL-8 (BF4T, 1.00E3 nM): 0.047 | IL-1alpha (BF4T, 1.00E3 nM): -0.00456 | Keratin 8/18 (BF4T, 1.00E3 nM): 0.007 | MMP-1 (BF4T, 1.00E3 nM): 0.015 | MMP-3 (BF4T, 1.00E3 nM): 0.034 | MMP-9 (BF4T, 1.00E3 nM): 0.024 | PAI-I (BF4T, 1.00E3 nM): 0.026 | SRB (BF4T, 1.00E3 nM): 0.00277 | tPA (BF4T, 1.00E3 nM): 0.071 | uPA (BF4T, 1.00E3 nM): 0.023 | CCL2/MCP-1 (BF4T, 1.00E4 nM): -0.034 | CCL26/Eotaxin-3 (BF4T, 1.00E4 nM): -0.125 | CD54/ICAM-1 (BF4T, 1.00E4 nM): -0.043 | CD90 (BF4T, 1.00E4 nM): 0.000654 | CD106/VCAM-1 (BF4T, 1.00E4 nM): 0.043 | CXCL8/IL-8 (BF4T, 1.00E4 nM): 0.030 | IL-1alpha (BF4T, 1.00E4 nM): -0.00143 | Keratin 8/18 (BF4T, 1.00E4 nM): -0.023 | MMP-1 (BF4T, 1.00E4 nM): 0.010 | MMP-3 (BF4T, 1.00E4 nM): 0.027 | MMP-9 (BF4T, 1.00E4 nM): -0.007 | PAI-I (BF4T, 1.00E4 nM): -0.013 | SRB (BF4T, 1.00E4 nM): 0.000752 | tPA (BF4T, 1.00E4 nM): 0.037 | uPA (BF4T, 1.00E4 nM): 0.017 | B cell Proliferation (1.00E0 nM): -0.010 | PBMC Cytotoxicity (1.00E0 nM): 0.032 | Secreted IgG (1.00E0 nM): 0.088 | sIL-2 (1.00E0 nM): 0.154 | sIL-6 (1.00E0 nM): 0.00536 | sIL-17A (1.00E0 nM): -0.061 | sIL-17F (1.00E0 nM): -0.213 | sTNF-alpha (1.00E0 nM): 0.097 | B cell Proliferation (1.00E1 nM): -0.033 | PBMC Cytotoxicity (1.00E1 nM): -0.030 | Secreted IgG (1.00E1 nM): -0.163 | sIL-2 (1.00E1 nM): 0.264 | sIL-6 (1.00E1 nM): 0.057 | sIL-17A (1.00E1 nM): 0.173 | sIL-17F (1.00E1 nM): -0.239 | sTNF-alpha (1.00E1 nM): 0.051 | B cell Proliferation (1.00E2 nM): -0.057 | PBMC Cytotoxicity (1.00E2 nM): -0.030 | Secreted IgG (1.00E2 nM): -0.186 | sIL-2 (1.00E2 nM): 0.109 | sIL-6 (1.00E2 nM): 0.035 | sIL-17A (1.00E2 nM): 0.214 | sIL-17F (1.00E2 nM): -0.485 | sTNF-alpha (1.00E2 nM): 0.059 | B cell Proliferation (1.00E3 nM): -0.027 | PBMC Cytotoxicity (1.00E3 nM): -0.033 | Secreted IgG (1.00E3 nM): 0.074 | sIL-2 (1.00E3 nM): 0.068 | sIL-6 (1.00E3 nM): 0.046 | sIL-17A (1.00E3 nM): 0.216 | sIL-17F (1.00E3 nM): -0.463 | sTNF-alpha (1.00E3 nM): 0.076 | B cell Proliferation (1.00E4 nM): -0.077 | PBMC Cytotoxicity (1.00E4 nM): -0.046 | Secreted IgG (1.00E4 nM): -0.114 | sIL-2 (1.00E4 nM): -0.00739 | sIL-6 (1.00E4 nM): -0.075 | sIL-17A (1.00E4 nM): 0.256 | sIL-17F (1.00E4 nM): -0.594 | sTNF-alpha (1.00E4 nM): 0.009 | CCL2/MCP-1 [1]: -0.018 | CD54/ICAM-1 [1]: 0.007 | CD106/VCAM-1 [1]: -0.010 | CXCL8/IL-8 [1]: -0.008 | CXCL9/MIG [1]: -0.000757 | CXCL10/IP-10 [1]: 0.037 | CXCL11/I-TAC [1]: 0.014 | Collagen I [1]: 0.035 | Collagen III [1]: 0.042 | EGFR [1]: 0.046 | M-CSF [1]: -0.058 | MMP-1 [1]: 0.070 | PAI-I [1]: 0.087 | Proliferation_72hr [1]: -0.036 | SRB [1]: 0.000177 | TIMP-1 [1]: 0.025 | TIMP-2 [1]: 0.118 | CCL2/MCP-1 [2]: -0.070 | CD54/ICAM-1 [2]: -0.021 | CD106/VCAM-1 [2]: 0.006 | CXCL8/IL-8 [2]: -0.045 | CXCL9/MIG [2]: -0.030 | CXCL10/IP-10 [2]: 0.050 | CXCL11/I-TAC [2]: -0.011 | Collagen I [2]: 0.014 | Collagen III [2]: 0.091 | EGFR [2]: -0.013 | M-CSF [2]: -0.075 | MMP-1 [2]: 0.050 | PAI-I [2]: 0.006 | Proliferation_72hr [2]: -0.171 | SRB [2]: -0.008 | TIMP-1 [2]: -0.010 | TIMP-2 [2]: 0.117 | CCL2/MCP-1 [3]: -0.120 | CD54/ICAM-1 [3]: -0.051 | CD106/VCAM-1 [3]: 0.051 | CXCL8/IL-8 [3]: -0.095 | CXCL9/MIG [3]: -0.077 | CXCL10/IP-10 [3]: 0.043 | CXCL11/I-TAC [3]: -0.010 | Collagen I [3]: 0.00565 | Collagen III [3]: 0.086 | EGFR [3]: -0.067 | M-CSF [3]: -0.100 | MMP-1 [3]: 0.024 | PAI-I [3]: -0.00168 | Proliferation_72hr [3]: -0.240 | SRB [3]: 0.000238 | TIMP-1 [3]: -0.059 | TIMP-2 [3]: 0.121 | CCL2/MCP-1 [4]: -0.156 | CD54/ICAM-1 [4]: -0.066 | CD106/VCAM-1 [4]: 0.036 | CXCL8/IL-8 [4]: -0.119 | CXCL9/MIG [4]: -0.093 | CXCL10/IP-10 [4]: 0.039 | CXCL11/I-TAC [4]: -0.012 | Collagen I [4]: 0.040 | Collagen III [4]: 0.054
